{"source": "ChEMBL document CHEMBL1201862", "about": "“PubChem BioAssay data set” (2004)", "key": {"[1]": {"assay": "A Cell Based Secondary Assay To Explore Cytotoxicity of Compounds that Sensitize Mycobacterium Tuberculosis to Beta-Lactam Antibiotics.", "assay_type": "functional"}, "Cytochrome P450 2D6": {"molecular_target": "Cytochrome P450 2D6 (Homo sapiens, UniProt P10635)", "sequence (P10635 whole entry)": "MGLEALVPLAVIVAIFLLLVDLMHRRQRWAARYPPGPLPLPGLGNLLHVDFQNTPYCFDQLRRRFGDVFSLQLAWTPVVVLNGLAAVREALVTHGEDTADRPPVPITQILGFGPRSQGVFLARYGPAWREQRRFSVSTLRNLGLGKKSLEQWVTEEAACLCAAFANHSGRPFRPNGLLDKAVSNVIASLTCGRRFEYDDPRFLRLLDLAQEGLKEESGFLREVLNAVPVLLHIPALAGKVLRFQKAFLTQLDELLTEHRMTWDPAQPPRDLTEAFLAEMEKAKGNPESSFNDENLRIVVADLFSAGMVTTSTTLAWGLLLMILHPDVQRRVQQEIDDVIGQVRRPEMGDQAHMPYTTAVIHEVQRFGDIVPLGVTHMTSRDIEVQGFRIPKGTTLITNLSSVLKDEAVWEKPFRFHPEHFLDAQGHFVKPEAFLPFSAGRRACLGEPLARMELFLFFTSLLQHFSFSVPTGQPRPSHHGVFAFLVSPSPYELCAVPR", "assay": "qHTS Assay for Inhibitors and Substrates of Cytochrome P450 2D6. [Related pubchem assays: 410 ]", "assay_type": "ADME", "settings": "read-out: Potency"}, "Cytochrome P450 2C9 [2]": {"molecular_target": "T1, Cytochrome P450 2C9 (Homo sapiens, UniProt P11712)", "T1 sequence (P11712 whole entry)": "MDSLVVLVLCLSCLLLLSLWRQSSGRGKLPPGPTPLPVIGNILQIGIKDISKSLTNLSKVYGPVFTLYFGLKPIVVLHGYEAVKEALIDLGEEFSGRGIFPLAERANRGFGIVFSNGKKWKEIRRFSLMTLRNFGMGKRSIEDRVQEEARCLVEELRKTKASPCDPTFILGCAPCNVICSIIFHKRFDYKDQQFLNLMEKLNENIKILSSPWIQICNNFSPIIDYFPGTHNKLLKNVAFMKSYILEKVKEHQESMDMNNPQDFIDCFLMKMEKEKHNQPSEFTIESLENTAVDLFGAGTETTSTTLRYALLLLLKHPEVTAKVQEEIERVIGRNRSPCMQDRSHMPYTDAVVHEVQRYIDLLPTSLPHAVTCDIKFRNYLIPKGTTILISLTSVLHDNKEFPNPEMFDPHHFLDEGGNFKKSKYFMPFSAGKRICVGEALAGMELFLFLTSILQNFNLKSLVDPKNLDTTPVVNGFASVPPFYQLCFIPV", "settings": "Potency"}, "[3]": {"assay": "A High Throughput Confirmatory Assay used to Identify Novel Compounds that Inhibit Mycobacterium Tuberculosis in the absence of Glycerol.", "assay_type": "functional"}, "Hexokinase HKDC1": {"molecular_target": "Hexokinase HKDC1 (Homo sapiens, UniProt Q2TB90)", "sequence (Q2TB90 whole entry)": "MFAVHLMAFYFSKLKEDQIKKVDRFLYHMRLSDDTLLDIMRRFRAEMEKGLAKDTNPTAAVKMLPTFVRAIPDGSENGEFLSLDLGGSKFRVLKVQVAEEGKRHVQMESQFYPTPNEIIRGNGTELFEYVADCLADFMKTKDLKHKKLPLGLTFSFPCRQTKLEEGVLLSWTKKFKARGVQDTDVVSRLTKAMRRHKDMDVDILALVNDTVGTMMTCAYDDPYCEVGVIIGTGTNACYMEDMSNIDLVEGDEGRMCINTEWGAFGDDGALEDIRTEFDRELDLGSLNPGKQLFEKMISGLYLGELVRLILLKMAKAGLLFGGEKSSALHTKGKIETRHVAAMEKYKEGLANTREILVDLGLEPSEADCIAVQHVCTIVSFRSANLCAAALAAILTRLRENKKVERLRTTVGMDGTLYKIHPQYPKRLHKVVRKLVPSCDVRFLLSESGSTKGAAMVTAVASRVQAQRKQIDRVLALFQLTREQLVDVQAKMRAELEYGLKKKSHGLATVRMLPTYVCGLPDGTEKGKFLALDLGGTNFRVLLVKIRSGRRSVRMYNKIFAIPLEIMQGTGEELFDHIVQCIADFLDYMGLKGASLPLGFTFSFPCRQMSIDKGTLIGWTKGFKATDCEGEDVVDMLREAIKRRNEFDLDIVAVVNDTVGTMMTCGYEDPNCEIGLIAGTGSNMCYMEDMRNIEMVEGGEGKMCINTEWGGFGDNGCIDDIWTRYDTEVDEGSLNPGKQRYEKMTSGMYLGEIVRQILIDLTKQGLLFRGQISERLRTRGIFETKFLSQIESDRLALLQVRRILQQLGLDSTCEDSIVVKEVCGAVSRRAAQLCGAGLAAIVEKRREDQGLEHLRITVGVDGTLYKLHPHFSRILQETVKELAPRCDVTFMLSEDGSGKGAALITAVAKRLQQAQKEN", "assay": "HKDC1 hexokinase inhibitors, dose response, biochemical, W721R variant (AID 504729)", "assay_type": "functional"}, "Genome polyprotein": {"molecular_target": "Genome polyprotein (dengue virus type 2, UniProt P29990)", "sequence (P29990 2492-3391 limits assumed)": "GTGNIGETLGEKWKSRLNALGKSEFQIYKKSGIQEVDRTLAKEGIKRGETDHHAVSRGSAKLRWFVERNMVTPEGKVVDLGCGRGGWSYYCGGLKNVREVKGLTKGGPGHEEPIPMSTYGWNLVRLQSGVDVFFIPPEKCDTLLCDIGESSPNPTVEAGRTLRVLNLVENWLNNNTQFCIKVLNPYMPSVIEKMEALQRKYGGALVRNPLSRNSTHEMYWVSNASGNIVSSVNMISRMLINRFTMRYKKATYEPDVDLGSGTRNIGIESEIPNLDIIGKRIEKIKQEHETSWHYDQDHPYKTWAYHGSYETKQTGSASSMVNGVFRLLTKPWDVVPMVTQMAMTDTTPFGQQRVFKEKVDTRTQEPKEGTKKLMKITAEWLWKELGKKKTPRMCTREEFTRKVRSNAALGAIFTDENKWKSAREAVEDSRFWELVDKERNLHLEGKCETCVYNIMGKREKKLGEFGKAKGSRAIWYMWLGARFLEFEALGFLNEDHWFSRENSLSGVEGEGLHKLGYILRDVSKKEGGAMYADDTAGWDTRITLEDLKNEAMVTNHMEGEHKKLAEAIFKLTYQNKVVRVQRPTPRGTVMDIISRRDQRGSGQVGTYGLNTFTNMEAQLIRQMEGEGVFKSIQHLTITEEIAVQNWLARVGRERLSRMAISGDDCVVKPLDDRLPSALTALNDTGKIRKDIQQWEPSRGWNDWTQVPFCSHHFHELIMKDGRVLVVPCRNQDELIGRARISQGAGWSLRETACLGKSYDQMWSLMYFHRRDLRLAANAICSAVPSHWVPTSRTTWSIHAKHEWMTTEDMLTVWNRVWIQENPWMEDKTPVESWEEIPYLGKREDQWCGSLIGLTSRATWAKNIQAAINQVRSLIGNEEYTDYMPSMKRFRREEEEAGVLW", "assay": "Dengue-2 NS5 methyltransferase inhibitors, primary screen, biochemical, confirmation dose response (AID 588689)", "assay_type": "functional"}, "cells [4]": {"assay": "cells", "assay_type": "functional, cell-based"}, "cells [5]": {"assay": "cells", "assay_type": "functional, cell-based", "remark": "listed apart in the source"}, "HEK293": {"tested_on": "HEK293", "assay": "inhibitors of LMP1-driven NF-kB reporter, dose response, cell-based, HEK293, luciferase, cherry-pick (AID 588343)", "assay_type": "functional", "settings": "Homo sapiens"}, "[6]": {"assay": "A cytotoxicity screen of small molecule inhibitors of the PhoP region in Salmonella typhi identified in the primary screen. [Related pubchem assays: 1850, 1864, 1985 ]", "assay_type": "functional"}, "cells [7]": {"assay": "cells", "assay_type": "functional"}, "[8]": {"molecular_target": "Acyl-homoserine lactone acylase PvdQ (Pseudomonas aeruginosa (strain LESB58), UniProt Q9I194)", "sequence (Q9I194 24-193 limits assumed)": "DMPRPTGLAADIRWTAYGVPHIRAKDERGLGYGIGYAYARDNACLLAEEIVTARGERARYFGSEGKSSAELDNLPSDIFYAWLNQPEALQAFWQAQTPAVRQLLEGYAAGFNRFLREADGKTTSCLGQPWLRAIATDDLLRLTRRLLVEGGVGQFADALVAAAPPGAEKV", "sequence (Q9I194 217-762 limits assumed)": "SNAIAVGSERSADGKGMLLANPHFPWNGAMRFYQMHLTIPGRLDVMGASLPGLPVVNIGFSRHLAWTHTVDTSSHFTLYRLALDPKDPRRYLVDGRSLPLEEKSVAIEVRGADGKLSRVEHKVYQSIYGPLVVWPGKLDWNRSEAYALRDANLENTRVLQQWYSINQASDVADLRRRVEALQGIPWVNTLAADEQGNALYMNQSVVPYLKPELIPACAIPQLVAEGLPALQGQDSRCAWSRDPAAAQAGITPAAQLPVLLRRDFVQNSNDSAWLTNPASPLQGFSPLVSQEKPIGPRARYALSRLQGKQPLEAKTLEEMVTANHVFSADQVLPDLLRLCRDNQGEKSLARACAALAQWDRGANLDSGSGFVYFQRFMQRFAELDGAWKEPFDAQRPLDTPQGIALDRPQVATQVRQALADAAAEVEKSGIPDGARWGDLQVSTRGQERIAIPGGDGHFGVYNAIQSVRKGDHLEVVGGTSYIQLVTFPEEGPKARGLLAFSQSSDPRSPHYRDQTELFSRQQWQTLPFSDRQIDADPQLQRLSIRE", "assay": "P. aeruginosa PvdQ acylase inhibitors, dose response, biochemical, fluorescence, plate reader and imaging, cherry-picks (AID 493231)"}, "cells [9]": {"assay": "cells"}, "[10]": {"assay": "HEp-2 cell cytotoxicity, dose response, cytotoxicity control for RSV inhibitor project, HTS (AID 2410)", "assay_type": "functional", "settings": "human respiratory syncytial virus"}, "[11]": {"assay": "HepG2 cell cytotoxicity, dose response, cytotoxicity control for non-replicating M. tuberculosis project (AID 489018)", "assay_type": "functional", "settings": "Mycobacterium tuberculosis"}, "[12]": {"assay": "THP-1 cell cytotoxicity, dose response, cytotoxicity control for non-replicating M. tuberculosis project (AID 489025)", "assay_type": "functional"}, "[13]": {"assay": "microbe, parasite or virus in culture", "assay_type": "functional", "settings": "Mycobacterium tuberculosis"}, "[14]": {"assay": "Luminescence Cell-Based Dose Retest to Confirm Inhibitors of Cancer Stem Cells. [Related pubchem assays (depositor defined):AID2717, AID2721]", "assay_type": "functional", "settings": "Homo sapiens"}, "[15]": {"assay": "Vero E6 cell cytotoxicity, dose response, cytotoxicity control for non-replicating M. tuberculosis project, secondary assay (AID 492998)", "assay_type": "functional, VeroE6", "settings": "Vero C1008"}, "[16]": {"molecular_target": "T2, Neuropeptide Y receptor type 2 (Homo sapiens, UniProt P49146)", "T2 sequence (P49146 whole entry)": "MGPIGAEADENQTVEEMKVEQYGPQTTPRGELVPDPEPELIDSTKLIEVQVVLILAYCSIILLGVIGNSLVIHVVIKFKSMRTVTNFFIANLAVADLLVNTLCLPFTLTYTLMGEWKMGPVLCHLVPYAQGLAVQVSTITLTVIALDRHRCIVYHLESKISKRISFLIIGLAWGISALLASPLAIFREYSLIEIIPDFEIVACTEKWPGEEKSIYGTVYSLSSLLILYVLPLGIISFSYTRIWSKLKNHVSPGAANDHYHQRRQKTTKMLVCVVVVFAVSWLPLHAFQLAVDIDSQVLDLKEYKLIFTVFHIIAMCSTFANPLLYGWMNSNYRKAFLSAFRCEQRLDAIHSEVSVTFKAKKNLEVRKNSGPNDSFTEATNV", "assay": "NPY-Y2 antagonist potency, selectivity check, dose response, counter-screen for NPY-Y1 antagonist project, cell-based (AID 1278)", "assay_type": "functional"}, "[17]": {"molecular_target": "T3, Neuropeptide Y receptor type 1 (Homo sapiens, UniProt P25929)", "T3 sequence (P25929 whole entry)": "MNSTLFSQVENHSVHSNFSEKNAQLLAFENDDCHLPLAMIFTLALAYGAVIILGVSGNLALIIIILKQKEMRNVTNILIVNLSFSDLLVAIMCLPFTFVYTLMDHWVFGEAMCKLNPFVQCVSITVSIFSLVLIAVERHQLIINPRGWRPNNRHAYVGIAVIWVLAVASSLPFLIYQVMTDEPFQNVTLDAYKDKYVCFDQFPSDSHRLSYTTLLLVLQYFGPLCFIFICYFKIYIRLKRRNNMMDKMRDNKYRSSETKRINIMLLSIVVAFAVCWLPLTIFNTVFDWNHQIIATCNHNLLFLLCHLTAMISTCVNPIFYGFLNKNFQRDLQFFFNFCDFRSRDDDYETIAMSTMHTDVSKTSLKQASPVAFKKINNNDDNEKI", "assay": "NPY-Y1 receptor antagonist potency, dose response, cell-based (AID 1277)", "assay_type": "functional"}, "Cytochrome P450 2C9 [18]": {"molecular_target": "T1, Cytochrome P450 2C9"}}, "note": "Active and inactive are the calls of the source.", "data": [{"smiles": "Cc1ccc(OCC(=O)N/N=C/c2cn(C)c3ccccc23)cc1", "values": [{"measurement": "CC50", "setting": "[1]", "value": "> 40 µM (active)"}]}, {"smiles": "O=C(O)[C@@H]1[C@@H]2C[C@H]3c4[nH]c5ccccc5c4CCN3C[C@@H]2CC[C@@H]1O", "values": [{"measurement": "AC50", "setting": "Cytochrome P450 2D6", "value": "31.6 µM (inconclusive)"}]}, {"smiles": "O=c1cc(-c2ccccc2)oc2c1ccc1ccccc12", "note": "[ALPHA-NAPHTHOFLAVONE]", "values": [{"measurement": "AC50", "setting": "Cytochrome P450 2D6", "value": "12.6 µM (inconclusive)"}, {"measurement": "AC50", "setting": "Cytochrome P450 2C9 [2]", "value": "7.94 µM (inconclusive)"}]}, {"smiles": "CC(C)(C)OC(=O)NN=C(S)NC1CCCCC1", "values": [{"measurement": "IC50", "setting": "[3]", "value": "> 100 µM (active)"}]}, {"smiles": "CCC(c1ccccc1)C(CC)c1cc(O)c(O)c(O)c1", "note": "(stereo unspecified)", "values": [{"measurement": "IC50", "setting": "Hexokinase HKDC1", "value": "18.3 µM (active)"}, {"measurement": "IC50", "setting": "Genome polyprotein", "value": "39.4 µM (active)"}]}, {"smiles": "COc1cccc(/C=N/NC(=O)CSCC(=O)Nc2ccccc2)c1O", "values": [{"measurement": "EC50", "setting": "cells [4]", "value": "> 350 µM (not active)"}, {"measurement": "EC50", "setting": "cells [5]", "value": "12.7 µM (active)"}, {"measurement": "AC50", "setting": "HEK293", "value": "25.4 µM (active)"}, {"measurement": "CC50", "setting": "[1]", "value": "21.3 µM (active)"}]}, {"smiles": "COc1ccccc1C(=O)Nc1nnc(-c2ccc(F)cc2)o1", "values": [{"measurement": "EC50", "setting": "[6]", "value": "> 50 µM (active)"}]}, {"smiles": "COC(=O)c1cc(-c2ccc(OC)cc2)on1", "values": [{"measurement": "IC50", "setting": "cells [7]", "value": "3.5 µM (active)"}, {"measurement": "AC50", "setting": "[8]", "value": "0.67 µM (active)"}]}, {"smiles": "CCOc1ccc2nc(NC(=O)C3(C)CC3(Br)Br)sc2c1", "note": "(stereo unspecified)", "values": [{"measurement": "IC50", "setting": "cells [9]", "value": "47.8 µM (active)"}, {"measurement": "CC50", "setting": "[10]", "value": "19.4 µM (active)"}]}, {"smiles": "CN1CCN(C2Cc3ccccc3Sc3cc(C(F)(F)F)ccc32)CC1", "note": "(stereo unspecified)", "values": [{"measurement": "CC50", "setting": "[11]", "value": "> 20 µM (active)"}, {"measurement": "CC50", "setting": "[12]", "value": "17.4 µM (active)"}, {"measurement": "IC50", "setting": "cells [7]", "value": "14.9 µM (active)"}, {"measurement": "CC50", "setting": "[13]", "value": "17.9 µM (active)"}, {"measurement": "AC50", "setting": "[14]", "value": "6.72 µM (active)"}, {"measurement": "CC50", "setting": "[15]", "value": "> 20 µM (active)"}]}, {"smiles": "CCOC(=O)c1c(CSc2ccccc2)n(C)c2ccc(O)c(CN3CCOCC3)c12", "values": [{"measurement": "IC50", "setting": "[16]", "value": "> 35 µM (not active)"}, {"measurement": "IC50", "setting": "[17]", "value": "1.94 µM (active)"}]}, {"smiles": "CC1=NN(c2ccccc2)C(=O)/C1=C\\c1c(C)[nH]n(-c2ccccc2)c1=O", "values": [{"measurement": "AC50", "setting": "Cytochrome P450 2C9 [18]", "value": "2.51 µM (inconclusive)"}, {"measurement": "IC50", "setting": "[3]", "value": "> 100 µM (active)"}]}]}
